Reference: article PMC7115536 (European Journal of Medicinal Chemistry, 2011)

Assays:
HEL cell cultures = settings: human
[1] = Stability studies at 37 °C in complete culture medium and CEM-SS cell extracts; type: in vitro ADME; settings: for t1/2 cell extracts (half-life of decomposition): CEM-SS cell extracts, 0.1 mM
[2] = cited from earlier work
WT HBV = type: cell-based

Structure (SMILES): C[C@H](Cn1cnc2c(N)ncnc21)OCP(=O)([O-])[S-].[Na+].[Na+] (stereo partly drawn) [S-PMPA 4, ({[(2R)-1-(6-Amino-9H-purin-9-yl)propan-2-yl]oxy}methyl)phosphonothioic acid]
- Minimum cytotoxic concentration (HEL cell cultures): >200 µM
- t1/2 cell extracts (half-life of decomposition) [1]: Stable ^c
- Degradation in complete culture medium after 24 h ([1]; complete culture medium, 24 h): 20%

Structure (SMILES): Nc1ncnc2c1ncn2CCOCP(=O)(O)O [PMEA, 9-(2-Phosphonomethoxyethyl)adenine, reference compound]
- Stability in all tested media [2]: stable
- Minimum cytotoxic concentration (HEL cell cultures): >200 µM

Structure (SMILES): Nc1ncnc2c1ncn2CCOCP(=O)([O-])[S-].[Na+].[Na+] (stereo not shown) [S-PMEA 3, {[2-(6-Amino-9H-purin-9-yl)ethoxy]methyl}phosphonothioic acid]
- Minimum cytotoxic concentration (HEL cell cultures): >200 µM
- t1/2 cell extracts (half-life of decomposition) [1]: Stable ^c
- Potency relative to PMEA (more potent) (WT HBV): 1.5–2.5 fold

Structure (SMILES): C[C@H](Cn1cnc2c(N)ncnc21)OCP(=O)(O)O [PMPA, (R)-9-(2-Phosphonomethoxypropyl)-adenine, reference compound]
- Stability in all tested media [2]: stable
- Minimum cytotoxic concentration (HEL cell cultures): >200 µM
